The test system of this test is oxidoreductase. Kind of test: Michaelis constants (Dixon and Webb method, Lineweaver-Burke plots). Format: biochemical, Microbacterium SP. (NCIB 12048). The conditions noted are these: two substrate enzyme; calculated from primary Lineweaver-Burke plots. The protocol:
The Michaelis constants (K^m) for NAD^+ and 1,2-ethanediol were calculated using the method described by Dixon, M and Webb, E.C. ("Enzymes", Longman Group Limited, 1964 pp. 84-86) for two substrate enzymes, based on data from primary plots constructed by the Lineweaver-Burke technique.

Structures are written as SMILES.

A word on the Km: it is the substrate concentration at which the rate is half of its maximum. Consider `OCCO` [Monoethylene Glycol, 1,2-ethanediol], for which the Km was about 480 µM.

For the compound `NC(=O)c1ccc[n+]([C@@H]2O[C@H](COP(=O)([O-])OP(=O)(O)OC[C@H]3O[C@@H](n4cnc5c(N)ncnc54)[C@H](O)[C@@H]3O)[C@@H](O)[C@H]2O)c1` [NAD^+, nicotinamide adenenine dinucleotide], the Michaelis-Menten constant (Km) was about 330 µM.
